Counter-ions that a name gives are not always drawn. Like-named read-outs stand apart in the source and are kept apart here.
Experiments:
rats = experiment: antidepressive action: suppression of ptosis, seeking behavior, motility and sensitivity to stimulus in rats given 2-hydroxy-2-ethyl-3-isobutyl-9,10-dimethoxy-1,2,3,4,6,7-hexahydro-11bH-benzo[a,d]quinolizine hydrochloride; format: in vivo; settings: 3 x 50 mg/kg p.o.; for Activity in % compared to Amitriptyline: Amitriptyline 100%
Protocol: The same dosage was administered to a control group of 5 non-pretreated rats. The ratings include central and peripheral symptoms, which are characteristic for tricyclic antidepressants [cf. Ann. N.Y. Acad. Sci. 96, 279 (1962)]. […] These changes were recorded according to a rating scheme which utilized numbers. […] The stated percentages are compared with the values for Amitriptyline* (Amitriptyline 100%).

salivation in rabbits = experiment: anticholinergic action: inhibition of pilocarpine-increased salivation in rabbits under light urethane narcosis; format: in vivo; settings: for inhibition at 3 mg/kg: Oryctolagus cuniculus, 3 mg/kg i.v., pilocarpine 5 mg/kg s.c.
Protocol: The low anticholinergic action can be shown by the lack of salivation inhibition in rabbits: The salivation in rabbits under light urethane narcosis was increased by pilocarpine injection (5 mg/kg. s.c.) and the amount of saliva was measured at 5-minute intervals. The inhibition of salivation is expressed as a percentage based upon the salivation of animals which only received pilocarpine.

mice = experiment: acute toxicity in mice (24-hour values); settings: mouse, in vivo
From the text: (§1) The low toxicity of the compounds of the invention can be illustrated by the acute toxicity of 1-methyl-10,11-dihydro-5-(3-dimethylaminopropyl)-5H-dibenzo[a,d]cycloheptene hydrochloride in mice (24-hour values): […]

[1] = acute toxicity in mice (24-hour values); settings: mouse, in vivo, mice, 24-hour values
From the text: as §1

Row | Structure (SMILES) | Activity in % compared to Amitriptyline (rats) [%] | inhibition at 3 mg/kg (salivation in rabbits) [%] | further results
1 | CNCCCC1c2ccccc2CCc2c(C)cccc21.Cl (stereo not shown) [1-Methyl-10,11-dihydro-5-(3-methylaminopropyl)-5H-dibenzo[a,d]cycloheptene hydrochloride] | 180 | 40 | 
2 | Cc1cccc2c1C=Cc1ccccc1C2=CCC[N+](C)(C)[O-] [1-methyl-5-(3-dimethylaminopropylidene)-5H-dibenzo[a,d]cycloheptene N-oxide hydrochloride] | 140 | 14 | 
3 | Cc1cccc2c1C=Cc1ccccc1C2=CCC[N+](C)(C)[O-] [1-methyl-5-(3-dimethylaminopropylidene)-5H-dibenzo[a,d]cycloheptene N-oxide] |  |  | toxicity (in words) (mice): reduced toxicity; antidepressive action (in words) (rats): excellent antidepressive action; antidepressive action (in words) (rats; listed as 1-methyl-5-(3-dimethylaminopropylidene)-5-H-dibenzo[a,d]cyclohehptene N-oxide): considerably increased antidepressive action; salivation inhibition / anticholinergic action (in words) (salivation in rabbits): absence of substantial anticholinergic action
4 | Cc1cccc2c1C=Cc1ccccc1C2=CCCN(C)C.Cl [1-methyl-5-(3-dimethylaminopropylidene)-5H-dibenzo[a,d]cycloheptene hydrochloride] | 130 | 60 | 
5 | CNCCC=C1c2ccccc2C=Cc2c(C)cccc21.Cl [1-methyl-5-(3-methylaminopropylidene)-5H-dibenzo[a,d]cycloheptene hydrochloride] | 230 | 60 | 
6 | Cc1cccc2c1CCc1ccccc1C2CCCN(C)C.Cl (stereo not shown) [1-methyl-10,11-dihydro-5-(3-dimethylaminopropyl)-5H-dibenzo[a,d]cycloheptene hydrochloride] | 180 | 50 | LD50 at 24 h ([1]; iv, i.v., read-out: LD50 i.v.): 25 to 50 mg/kg; LD50 at 24 h ([1]; po, p.o., read-out: LD50 p.o.): 300 to 600 mg/kg
7 | Cc1cccc2c1CCc1ccccc1C2=CCCN(C)C.Cl [1-methyl-10,11-dihydro-5-(3-dimethylaminopropylidene)-5H-dibenzo[a,d]cycloheptene hydrochloride] | 220 | 50 | 
8 | CNCCC=C1c2ccccc2CCc2c(C)cccc21.Cl [1-methyl-10,11-dihydro-5-(3-methylaminopropylidene)-5H-dibenzo[a,d]cycloheptene hydrochloride] | 140 | 50 | 
9 | CN(C)CCC=C1c2ccccc2CCc2ccccc21 [Amitriptyline, 5-(3-dimethylaminopropylidene)-dibenzo[a,d][1,4] cycloheptadiene, reference compound] | 100 | 96 | 

Reference: patent US3952017A, “Tricyclic compounds” (Hoffmann-La Roche Inc., priority 1968, dated 1976)
